Where two headings read alike, the source gives them in different places.
Tests used:
[1] = system: HCV genotype 1b (Con1) replicon in HUH-7 cells; assay: HCV replicon luciferase reporter assay, genotype 1b; assay type: cell-based; details: Hepatitis C virus, Huh-7, 72 h, 3 days incubation, read-out: LE_1b (EC50, range)
Procedure, shortened: (§1)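 Replicon inhibition for both genotypes was measured as Renilla luciferase signal (EnduRen, 7.5 μM final, 2 h) after 3-day, 37° C exposure of replicon-bearing HUH-7 cells in 4% FCS DMEM, 0.5% DMSO. The 1b construct carries S1179I; the 1a H77 construct carries P1496L and S2204I. Twenty-point, 3-fold dilutions were fitted four-parametrically for EC50, and CC50 was taken from multiplexed Cell Titer-Blue.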

[2] = system: HCV genotype 1a (H77 strain) replicon in HUH-7 cells; assay: HCV replicon luciferase reporter assay, genotype 1a; assay type: cell-based; details: Hepatitis C virus, Huh-7, 72 h, 3 days incubation, read-out: LE_1a (EC50, range)
Procedure, shortened: as §1

[3] = HCV genotype 1b replicon luciferase
[4] = HCV genotype 1a replicon luciferase
[5] = HCV genotype 1b replicon luciferase assay, range class
[6] = HCV genotype 1a replicon luciferase assay, range class

SMILES | EC50 [1, 3] [nM] | EC50 [2, 4] [nM] | EC50 [1, 5] [nM] | EC50 [2, 6] [nM]
[2H]C([2H])([2H])Oc1cnc(O[C@@H]2C[C@H]3C(=O)N[C@]4(C(=O)NS(=O)(=O)C5(C)CC5)C[C@H]4/C=C\CC[C@H](C)C[C@@H](C)[C@H](NC(=O)OC(C)(C)C(C)(F)F)C(=O)N3C2)c2ccccc12 [Compound 5108, 3,3-difluoro-2-methylbutan-2-yl((2R,6S,7R,9S,13aS,14aR,16aS,Z)-7,9-dimethyl-14a-(((1-methylcyclopropyl)sulfonyl)carbamoyl)-5,16-dioxo-2-((4-(trideuteromethoxy)isoquinolin-1-yl)oxy)-1,2,3,5,6,7,8,9,10,11,13a,14,14a,15,16,16a-hexadecahydrocyclopropa[e]pyrrolo[1,2-a][1,4]diazacyclopentadecin-6-yl)carbamate] | < 5.46 | < 5.46 |  | 
[2H]C([2H])([2H])C(OC(=O)N[C@@H]1C(=O)N2C[C@H](Oc3nccc4cc(OC)ccc34)CC2C(=O)N[C@]2(C(=O)NS(=O)(=O)C3(C)CC3)C[C@H]2/C=C\CC[C@@H](C)C[C@H]1C)(C([2H])([2H])[2H])C(F)(F)F (stereo partly drawn) [Compound 5175, 1,1,1,3,3,3-hexadeutero-2-(trifluoromethyl)propan-2-yl((2R,6S,7R,9R,13aS,14aR,16aS,Z)-2-((6-methoxyisoquinolin-1-yl)oxy)-7,9-dimethyl-14a-(((1-methylcyclopropyl)sulfonyl)carbamoyl)-5,16-dioxo-1,2,3,5,6,7,8,9,10,11,13a,14,14a,15,16,16a-hexadecahydrocyclopropa[e]pyrrolo[1,2-a][1,4]diazacyclopentadecin-6-yl)carbamate] | < 5.46 | < 5.46 |  | 
COc1ccc2c(O[C@@H]3C[C@H]4C(=O)N[C@]5(C(=O)NS(=O)(=O)C6(C)CC6)C[C@H]5/C=C\CC[C@H](C)C[C@@H](C)[C@H](NC(=O)O[C@H](C)C(F)(F)F)C(=O)N4C3)nc(N3CCOCC3)cc2c1 [Compound 3092, (R)-1,1,1-trifluoropropan-2-yl ((2R,6S,7R,9S,13aS,14aR,16aS,Z)-2-((6-methoxy-3-morpholinoisoquinolin-1-yl)oxy)-7,9-dimethyl-14a-(((1-methylcyclopropyl)sulfonyl)carbamoyl)-5,16-dioxo-1,2,3,5,6,7,8,9,10,11,13a,14,14a,15,16,16a-hexadecahydrocyclopropa[e]pyrrolo[1,2-a][1,4]diazacyclopentadecin-6-yl)carbamate] |  |  | < 5.46 | < 5.46
COc1ccc2c(O[C@@H]3C[C@H]4C(=O)N[C@]5(C(=O)NS(=O)(=O)C6(C)CC6)C[C@H]5/C=C\CC[C@@H](C)C[C@@H](C)[C@H](NC(=O)OC(C)(C)C(C)(F)F)C(=O)N4C3)nc(OC(C)C)cc2c1 [Compound 3204, 3,3-difluoro-2-methylbutan-2-yl((2R,6S,7R,9R,13aS,14aR,16aS,Z)-2-((3-isopropoxy-6-methoxyisoquinolin-1-yl)oxy)-7,9-dimethyl-14a-(((1-methylcyclopropyl)sulfonyl)carbamoyl)-5,16-dioxo-1,2,3,5,6,7,8,9,10,11,13a,14,14a,15,16,16a-hexadecahydrocyclopropa[e]pyrrolo[1,2-a][1,4]diazacyclopentadecin-6-yl)carbamate] | 1.01 to 5 | 0.51 to 1 |  | 
COc1ccc2c(O[C@@H]3C[C@H]4C(=O)N[C@]5(C(=O)NS(=O)(=O)C6(C)CC6)C[C@H]5/C=C\CC[C@@H](C)C[C@@H](C)[C@H](NC(=O)OC(C)(C)C(F)(F)F)C(=O)N4C3)nc(-c3ccc(OC(C)C)c(F)c3)cc2c1 [Compound 3078, 1,1,1-trifluoro-2-methylpropan-2-yl((2R,6S,7R,9R,13aS,14aR,16aS,Z)-2-((3-(3-fluoro-4-isopropoxyphenyl)-6-methoxyisoquinolin-1-yl)oxy)-7,9-dimethyl-14a-(((1-methylcyclopropyl)sulfonyl)carbamoyl)-5,16-dioxo-1,2,3,5,6,7,8,9,10,11,13a,14,14a,15,16,16a-hexadecahydrocyclopropa[e]pyrrolo[1,2-a][1,4]diazacyclopentadecin-6-yl)carbamate] |  |  | < 5.46 | < 5.46
[2H]C([2H])([2H])C(C)(OC(=O)N[C@@H]1C(=O)N2C[C@H](Oc3nccc4cc(OC(C)C)ccc34)C[C@H]2C(=O)N[C@]2(C(=O)NS(=O)(=O)C3CC3)C[C@H]2/C=C\CC[C@@H](C)C[C@H]1C)C([2H])([2H])[2H] [Compound 5153, 1,1,1,3,3,3-hexadeutero-2-methylpropan-2-yl((2R,6S,7R,9R,13aS,14aR,16aS,Z)-14a-((cyclopropylsulfonyl)carbamoyl)-2-((6-isopropoxyisoquinolin-1-yl)oxy)-7,9-dimethyl-5,16-dioxo-1,2,3,5,6,7,8,9,10,11,13a,14,14a,15,16,16a-hexadecahydrocyclopropa[e]pyrrolo[1,2-a][1,4]diazacyclopentadecin-6-yl)carbamate] | < 5.46 | < 5.46 |  | 
COc1ccc2c(O[C@@H]3C[C@H]4C(=O)N[C@]5(C(=O)NS(=O)(=O)C6CC6)C[C@H]5/C=C\CC[C@@H](C)C[C@@H](C)[C@H](NC(=O)OC(C)(C)C(F)(F)F)C(=O)N4C3)nc(N(C)C)cc2c1 [Compound 3130, 1,1,1-trifluoro-2-methylpropan-2-yl((2R,6S,7R,9R,13aS,14aR,16aS,Z)-14a-((cyclopropylsulfonyl)carbamoyl)-2-((3-(dimethylamino)-6-methoxyisoquinolin-1-yl)oxy)-7,9-dimethyl-5,16-dioxo-1,2,3,5,6,7,8,9,10,11,13a,14,14a,15,16,16a-hexadecahydrocyclopropa[e]pyrrolo[1,2-a][1,4]diazacyclopentadecin-6-yl)carbamate] |  |  | < 5.46 | < 5.46
CC[C@@H]1C[C@H](C)CC/C=C\[C@@H]2C[C@@]2(C(=O)NS(=O)(=O)C2CC2)NC(=O)[C@@H]2C[C@@H](Oc3nccc4c(OC)cccc34)CN2C(=O)[C@H]1NC(=O)OC(C)(C)C(F)(F)F [Compound 3032, 1,1,1-trifluoro-2-methylpropan-2-yl((2R,6S,7R,9R,13aS,14aR,16aS,Z)-14a-((cyclopropylsulfonyl)carbamoyl)-7-ethyl-2-((5-methoxyisoquinolin-1-yl)oxy)-9-methyl-5,16-dioxo-1,2,3,5,6,7,8,9,10,11,13a,14,14a,15,16,16a-hexadecahydrocyclopropa[e]pyrrolo[1,2-a][1,4]diazacyclopentadecin-6-yl)carbamate] |  |  | < 5.46 | < 5.46
[2H]C([2H])([2H])C(C)(OC(=O)N[C@@H]1C(=O)N2C[C@H](Oc3nccc4cc(OC)ccc34)CC2C(=O)N[C@]2(C(=O)NS(=O)(=O)C3(C)CC3)C[C@H]2/C=C\CC[C@@H](C)C[C@H]1C)C([2H])([2H])[2H] (stereo partly drawn) [Compound 5177, 1,1,1,3,3,3-hexadeutero-2-methylpropan-2-yl((2R,6S,7R,9R,13aS,14aR,16aS,Z)-2-((6-methoxyisoquinolin-1-yl)oxy)-7,9-dimethyl-14a-(((1-methylcyclopropyl)sulfonyl)carbamoyl)-5,16-dioxo-1,2,3,5,6,7,8,9,10,11,13a,14,14a,15,16,16a-hexadecahydrocyclopropa[e]pyrrolo[1,2-a][1,4]diazacyclopentadecin-6-yl)carbamate] | < 5.46 | < 5.46 |  | 
COc1ccc2nc(OC)c(O[C@@H]3C[C@H]4C(=O)N[C@]5(C(=O)NS(=O)(=O)C6(CF)CC6)C[C@H]5/C=C\CC[C@@H](C)C[C@@H](C)[C@H](NC(=O)OC(C)(C)C)C(=O)N4C3)cc2c1 [Compound 4376, tert-butyl ((2R,6S,7R,9R,13aS,14aR,16aS,Z)-2-((2,6-dimethoxyquinolin-3-yl)oxy)-14a-(((1-(fluoromethyl)cyclopropyl)sulfonyl)carbamoyl)-7,9-dimethyl-5,16-dioxo-1,2,3,5,6,7,8,9,10,11,13a,14,14a,15,16,16a-hexadecahydrocyclopropa[e]pyrrolo[1,2-a][1,4]diazacyclopentadecin-6-yl)carbamate] | 0.1 to 0.5 | 1.01 to 5 |  | 
COc1cc2ccccc2c(O[C@@H]2C[C@H]3C(=O)N[C@]4(C(=O)NS(=O)(=O)C5(C)CC5)C[C@H]4/C=C\CC[C@H](C)C[C@@H](C)[C@H](NC(=O)OC(C)(C)C)C(=O)N3C2)n1 [Compound 6008, tert-butyl ((2R,6S,7R,9S,13aS,14aR,16aS,Z)-2-((3-methoxyisoquinolin-1-yl)oxy)-7,9-dimethyl-14a-(((1-methylcyclopropyl)sulfonyl)carbamoyl)-5,16-dioxo-1,2,3,5,6,7,8,9,10,11,13a,14,14a,15,16,16a-hexadecahydrocyclopropa[e]pyrrolo[1,2-a][1,4]diazacyclopentadecin-6-yl)carbamate] | < 5.46 | < 5.46 |  | 
COc1cc2ccnc(O[C@@H]3C[C@H]4C(=O)N[C@]5(C(=O)NS(=O)(=O)C6(F)CC6)C[C@H]5/C=C\CC[C@@H](C)C[C@@H](C)[C@H](NC(=O)OC(C)(C)C)C(=O)N4C3)c2cc1F [Compound 4049, tert-butyl (2R,6S,7R,9R,13aS,14aR,16aS,Z)-2-(7-fluoro-6-methoxyisoquinolin-1-yloxy)-14a-(1-fluorocyclopropylsulfonylcarbamoyl)-7,9-dimethyl-5,16-dioxo-1,2,3,5,6,7,8,9,10,11,13a,14,14a,15,16,16a-hexadecahydrocyclopropa[e]pyrrolo[1,2-a][1,4]diazacyclopentadecin-6-ylcarbamate] | < 5.46 | < 5.46 |  | 

From patent publication US9499550B2 (BRISTOL-MYERS SQUIBB COMPANY, priority 2012, dated 2016)
